Source: article PMC2825747 (Journal of medicinal chemistry, 2010)

Experiments:
[1] = target: E. coli thymidylate synthase (Escherichia coli, UniProt P0A884); assay: Thymidylate synthase; format: biochemical
PDGFR-β = PDGFR-β (Homo sapiens, UniProt P09619); assay: PDGFR-β kinase inhibition, phosphotyrosine cytoblot in SF539 cells; format: cell-based; details: versus DMBI
MDA-MB-435 breast cells = assay: Cell signaling analysis; format: cell-based, human; details: MDA-MB-435 cells, 20 μM, 1 or 4 h
[2] = target: human thymidylate synthase (hTS) (Homo sapiens, UniProt P04818); assay: Thymidylate synthase; format: biochemical; details: versus pemetrexed
Sequence of human thymidylate synthase (hTS) (P04818 whole entry): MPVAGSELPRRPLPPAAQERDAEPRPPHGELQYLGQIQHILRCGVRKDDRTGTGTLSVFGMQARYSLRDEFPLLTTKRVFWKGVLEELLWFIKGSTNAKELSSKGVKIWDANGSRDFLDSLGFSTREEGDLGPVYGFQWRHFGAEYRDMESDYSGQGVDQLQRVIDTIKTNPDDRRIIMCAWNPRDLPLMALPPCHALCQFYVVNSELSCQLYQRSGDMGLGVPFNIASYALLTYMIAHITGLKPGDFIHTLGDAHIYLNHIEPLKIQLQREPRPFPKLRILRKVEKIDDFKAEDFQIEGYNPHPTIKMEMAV

[3] = target: T1, Toxoplasma gondii dihydrofolate reductase (Toxoplasma gondii, UniProt Q07422); assay: biochemical
T1 sequence (Q07422 1-610): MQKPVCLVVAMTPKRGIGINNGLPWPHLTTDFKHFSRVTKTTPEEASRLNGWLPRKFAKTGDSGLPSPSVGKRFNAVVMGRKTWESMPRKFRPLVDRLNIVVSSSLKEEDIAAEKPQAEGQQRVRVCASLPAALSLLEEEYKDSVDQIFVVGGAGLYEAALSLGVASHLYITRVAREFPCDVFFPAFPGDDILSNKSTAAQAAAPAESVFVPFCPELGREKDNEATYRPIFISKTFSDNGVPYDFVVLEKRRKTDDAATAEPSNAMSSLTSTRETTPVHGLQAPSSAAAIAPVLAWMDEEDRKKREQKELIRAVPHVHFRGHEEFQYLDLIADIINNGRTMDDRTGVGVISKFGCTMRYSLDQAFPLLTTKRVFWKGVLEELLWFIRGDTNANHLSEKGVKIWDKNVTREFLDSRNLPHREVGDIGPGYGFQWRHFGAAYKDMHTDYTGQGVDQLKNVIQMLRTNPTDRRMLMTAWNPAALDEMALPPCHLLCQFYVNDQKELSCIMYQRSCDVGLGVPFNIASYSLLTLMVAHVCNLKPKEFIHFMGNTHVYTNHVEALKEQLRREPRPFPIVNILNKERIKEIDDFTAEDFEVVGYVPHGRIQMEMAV

[4] = test system: MDA-MB-435, A431, Capan-1, HUVEC, HMEC-1, Huperi-3, human aortic SMCs; assay: Cell viability; details: 24 h drug then 24 h serum-containing media; Fig. 10
[5] = test system: MDA MB 435 metastatic dermal breast cancer cells; assay: Cell cycle analysis in MDA-MB-435 cells; format: cell-based, human; details: 20 μM, 24 h exposure
Flt-3 = target: T2, Flt-3 (Homo sapiens, UniProt P36888); assay: Flt-3 kinase whole cell assay, cytoblot in MV 3:11 cells; format: cell-based; details: versus 16
T2 sequence (P36888 27-993): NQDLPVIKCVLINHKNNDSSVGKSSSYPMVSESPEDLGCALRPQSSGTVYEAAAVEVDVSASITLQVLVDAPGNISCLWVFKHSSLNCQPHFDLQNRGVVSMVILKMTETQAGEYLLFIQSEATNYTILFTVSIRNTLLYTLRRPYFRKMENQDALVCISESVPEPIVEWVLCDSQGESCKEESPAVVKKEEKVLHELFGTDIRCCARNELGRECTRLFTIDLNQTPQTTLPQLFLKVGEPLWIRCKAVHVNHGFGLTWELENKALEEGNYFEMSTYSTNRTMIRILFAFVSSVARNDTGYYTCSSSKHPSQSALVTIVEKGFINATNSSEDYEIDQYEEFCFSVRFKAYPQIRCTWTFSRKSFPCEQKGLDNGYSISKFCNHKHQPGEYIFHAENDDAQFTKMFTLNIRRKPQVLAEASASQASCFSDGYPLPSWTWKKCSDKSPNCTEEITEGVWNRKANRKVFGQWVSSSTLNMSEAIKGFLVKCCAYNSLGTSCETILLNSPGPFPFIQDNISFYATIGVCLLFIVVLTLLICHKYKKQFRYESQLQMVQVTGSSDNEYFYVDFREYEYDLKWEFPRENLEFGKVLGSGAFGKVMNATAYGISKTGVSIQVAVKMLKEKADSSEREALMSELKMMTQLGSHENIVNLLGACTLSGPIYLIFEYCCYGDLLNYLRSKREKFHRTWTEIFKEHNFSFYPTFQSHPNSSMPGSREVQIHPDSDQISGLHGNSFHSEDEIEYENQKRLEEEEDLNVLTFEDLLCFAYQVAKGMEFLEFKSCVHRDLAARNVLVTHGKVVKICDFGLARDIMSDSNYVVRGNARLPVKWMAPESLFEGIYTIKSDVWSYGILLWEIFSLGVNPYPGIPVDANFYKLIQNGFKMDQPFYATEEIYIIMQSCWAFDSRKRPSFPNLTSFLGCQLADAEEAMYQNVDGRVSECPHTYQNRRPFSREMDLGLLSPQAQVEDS

[6] = target: T3, Toxoplasma gondii thymidylate synthase (Toxoplasma gondii, UniProt Q07422); assay: biochemical
T3 sequence (Q07422 1-610): T1 sequence (Q07422 1-610)

[7] = Dose-finding embryo lethality in CAM model; format: in vivo; details: chicken embryos, 3 days after injection
[8] = test system: COLO-205 metastatic colon cancer cells; assay: COLO-205 human metastatic colon mouse xenograft; format: in vivo, athymic mice; details: 1 at both 25 and 35 mg/kg; DMBI 15 mg/kg three times weekly
[9] = Whole animal toxicity assay; details: doses up from 75 mg/kg; no MTD was determined
NCI 60 tumor cell lines = assay: NCI preclinical 60 tumor cell line panel growth inhibition; format: cell-based; details: Homo sapiens, read-out: GI50 against the growth of the NCI 60 tumor cell lines

Sequence of PDGFR-β (P09619 33-1106): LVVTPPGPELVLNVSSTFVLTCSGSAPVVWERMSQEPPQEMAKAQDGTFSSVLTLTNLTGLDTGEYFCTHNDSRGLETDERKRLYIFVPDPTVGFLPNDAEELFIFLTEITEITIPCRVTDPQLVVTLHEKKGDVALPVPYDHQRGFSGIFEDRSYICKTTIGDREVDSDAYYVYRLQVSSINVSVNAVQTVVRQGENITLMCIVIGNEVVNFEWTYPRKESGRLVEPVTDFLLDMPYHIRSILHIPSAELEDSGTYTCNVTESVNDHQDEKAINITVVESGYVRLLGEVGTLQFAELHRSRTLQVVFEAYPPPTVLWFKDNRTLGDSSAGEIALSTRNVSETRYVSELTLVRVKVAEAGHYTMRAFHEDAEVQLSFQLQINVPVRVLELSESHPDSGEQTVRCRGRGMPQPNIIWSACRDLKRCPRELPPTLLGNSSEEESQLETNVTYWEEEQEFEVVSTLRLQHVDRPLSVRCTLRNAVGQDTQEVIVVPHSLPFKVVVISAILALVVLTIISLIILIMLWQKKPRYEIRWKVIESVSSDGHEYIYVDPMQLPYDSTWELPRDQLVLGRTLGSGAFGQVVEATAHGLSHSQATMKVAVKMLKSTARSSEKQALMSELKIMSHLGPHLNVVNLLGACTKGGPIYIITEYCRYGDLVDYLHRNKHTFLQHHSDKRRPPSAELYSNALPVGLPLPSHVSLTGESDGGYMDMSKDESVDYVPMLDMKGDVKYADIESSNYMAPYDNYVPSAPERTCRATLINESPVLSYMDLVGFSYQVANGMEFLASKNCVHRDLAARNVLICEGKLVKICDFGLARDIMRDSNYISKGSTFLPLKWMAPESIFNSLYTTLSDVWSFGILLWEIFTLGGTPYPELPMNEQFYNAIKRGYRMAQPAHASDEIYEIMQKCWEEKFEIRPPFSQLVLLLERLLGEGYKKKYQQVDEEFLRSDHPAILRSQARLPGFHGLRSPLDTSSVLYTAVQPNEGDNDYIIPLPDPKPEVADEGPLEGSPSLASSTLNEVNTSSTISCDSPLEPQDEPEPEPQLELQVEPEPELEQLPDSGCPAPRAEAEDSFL
Sequence of E. coli thymidylate synthase (P0A884 whole entry): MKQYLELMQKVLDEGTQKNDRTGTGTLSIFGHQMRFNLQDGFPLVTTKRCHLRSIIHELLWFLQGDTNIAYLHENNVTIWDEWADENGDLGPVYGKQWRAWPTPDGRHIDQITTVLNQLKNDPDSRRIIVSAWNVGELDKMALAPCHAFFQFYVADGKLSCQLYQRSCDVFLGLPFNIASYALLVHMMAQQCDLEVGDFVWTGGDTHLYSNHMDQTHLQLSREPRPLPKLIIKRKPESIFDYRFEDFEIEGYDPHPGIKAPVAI

SMILES	IC50 [1] [µM]	PDGFR-β: fold less potent than the standard DMBI (PDGFR-β)	levels of activated phospho-Akt (MDA-MB-435 breast cells)	levels of activated phospho-p42/44 MAPkinase (ERK 1/2) (MDA-MB-435 breast cells)	levels of cleaved caspase 3 (MDA-MB-435 breast cells)	hTS: fold more active than PMX as its monoglutamate [2] [fold]	IC50 [3] [µM]	cell viability (cell kill) sensitivity by cell type [4]	cell cycle effect [5]	Flt-3: fold less active compared with standard 16 (Flt-3)	IC50 [6] [µM]	highest dose resulting in no lethality or overt toxicity in embryos [7] [mg/kg]	numbers of COLO-205 metastases to the liver [8]	tolerability in mice [9]	GI50 (NCI 60 tumor cell lines) [µM]
Cc1ccc(Sc2cccc3[nH]c4nc(N)nc(N)c4c23)cc1 [Compound 2, 5-[(4-methylphenyl)thio]-9H-pyrimido[4,5-b]indole-2,4-diamine]	> 26	about 11 fold	neither agent resulted in increased levels of activated phospho-Akt	reduced levels of activated ERK 1/2	neither 20 μM 1 or 20 μM 2 resulted in increased levels of cleaved caspase 3	76	> 31	tumor cells being the most sensitive, endothelial cells falling someplace in the middle, and SMC variants being the least sensitive	increase in S phase	about 13 fold	> 26	–	–	–	–
Nc1nc(N)c2c(n1)[nH]c1cccc(Sc3ccccc3)c12 [Compound 1, 5-(phenylthio)-9H-pyrimido[4,5-b]indole-2,4-diamine]	–	–	neither agent resulted in increased levels of activated phospho-Akt	reduced levels of activated ERK 1/2	neither 20 μM 1 or 20 μM 2 resulted in increased levels of cleaved caspase 3	–	–	Human retinal pericytes (Huperi-3),[64] (not human aortic SMCs), were very sensitive	buildup in G2/M	–	–	25	significantly reduced numbers of COLO-205 metastases to the liver	well tolerated without any visual ADRs or loss in weight	1 to 10
Nc1ccn([C@@H]2O[C@H](CO)[C@@H](O)C2(F)F)c(=O)n1 [gemcitabine, reference compound]	–	–	–	–	–	–	–	–	–	–	–	10	–	–	–
